Data published in US20240270698A2, “NOVEL PYRIMIDINE DERIVATIVE AND USE THEREOF” (KOREA RESEARCH INSTITUTE OF CHEMICAL TECHNOLOGY, priority 2019, published 2024).

Key:
[1] = target: T1, human recombinant LRRK2 protein (Homo sapiens, UniProt Q5S007); assay: LRRK2 kinase activity assay (Eurofins, gamma-33P-ATP, filtermat scintillation counting); type: biochemical; details: human recombinant LRRK2, 40 minutes at room temperature
T1 construct: purchased Eurofins
Experimental: (§1) Compounds 1 to 119 synthesized in Example 1 according to the present disclosure were assayed for inhibitory activity against MLK3/LRRK2 enzymes and anticancer activity against HepG2/HS746T cancer cells, and the results are summarized in Table 1, below.
(§2) Inhibitory activity against MLK3 and LRRK2 enzymes was evaluated in Eurofins. In brief, human recombinant MLK3 protein was mixed with the compounds in a reaction buffer (8 mM MOPS (pH 7.0), 0.2 mM EDTA, 0.33 mg/mL myelin basic protein, 5 mM DTT) to which a mixture of 10 mM magnesium acetate and gamma-33P-ATP was then added before incubation at room temperature for 120 minutes. Afterward, the reaction was terminated with 0.5% phosphoric acid. Ten μL of the total mixture was spotted onto a P30 filtermat which was then washed four times for 4 minutes with 0.425% phosphoric acid and once in methanol prior to scintillation counting. Values for the activity of MLK3 were expressed as % of the control. For the activity of LRRK2, human recombinant LRRK2 protein was mixed with the compounds in a reaction buffer (50 mM HEPES (pH 8.0), 0.2 mM EDTA, 0.01% Brij-35, 1% (w/v) BSA, 5 mM DTT, 250 uM substrate peptide RLGRDKYKTLRQIRQ) and then reacted with a mixture of 10 mM magnesium acetate and gamma-33P-ATP at room temperature for 40 minutes. Afterward, the reaction was terminated with 0.5% phosphoric acid. Ten μL of the total mixture was spotted onto a P30 filtermat which was then washed four times for 4 minutes with 0.425% phosphoric acid and once in methanol prior to scintillation counting. Values for the activity of LRRK2 were expressed as % of the control.

[2] = test system: HS746T cancer cells; assay: Anticancer activity, cell viability by CCK-8, HS746T; type: cell-based; details: 72 hours
Experimental: (§3) Compounds 1 to 119 synthesized in Example 1 according to the present disclosure were assayed for inhibitory activity against MLK3/LRRK2 enzymes and anticancer activity against HepG2/H[…] cancer cells, and the results are summarized in Table 1, below. Assay for anticancer activity was conducted as follows. HepG2 and H[…] cancer cells were purchased from the Korean Cell Line Bank and cultured according to the instruction provided thereby. One hundred μL of a culture of the cells were seeded at a density of 4,000 cells/well into 96-well plates. After 24 hours, the cells were treated with the compounds for 72 hours. Then, cell viability was assayed using CCK-8 and expressed as % of the control.

[3] = target: T2, human recombinant MLK3 protein (Homo sapiens, UniProt Q16584); assay: MLK3 kinase activity assay (Eurofins, gamma-33P-ATP, filtermat scintillation counting); type: biochemical; details: human recombinant MLK3, 120 minutes at room temperature
T2 construct: purchased Eurofins
Experimental: as §1, §2

[4] = test system: HepG2 cancer cells; assay: Anticancer activity, cell viability by CCK-8, HepG2; type: cell-based; details: HepG2, 10 μM, 72 hours
Experimental: as §3

T1 sequence (Q5S007 whole entry): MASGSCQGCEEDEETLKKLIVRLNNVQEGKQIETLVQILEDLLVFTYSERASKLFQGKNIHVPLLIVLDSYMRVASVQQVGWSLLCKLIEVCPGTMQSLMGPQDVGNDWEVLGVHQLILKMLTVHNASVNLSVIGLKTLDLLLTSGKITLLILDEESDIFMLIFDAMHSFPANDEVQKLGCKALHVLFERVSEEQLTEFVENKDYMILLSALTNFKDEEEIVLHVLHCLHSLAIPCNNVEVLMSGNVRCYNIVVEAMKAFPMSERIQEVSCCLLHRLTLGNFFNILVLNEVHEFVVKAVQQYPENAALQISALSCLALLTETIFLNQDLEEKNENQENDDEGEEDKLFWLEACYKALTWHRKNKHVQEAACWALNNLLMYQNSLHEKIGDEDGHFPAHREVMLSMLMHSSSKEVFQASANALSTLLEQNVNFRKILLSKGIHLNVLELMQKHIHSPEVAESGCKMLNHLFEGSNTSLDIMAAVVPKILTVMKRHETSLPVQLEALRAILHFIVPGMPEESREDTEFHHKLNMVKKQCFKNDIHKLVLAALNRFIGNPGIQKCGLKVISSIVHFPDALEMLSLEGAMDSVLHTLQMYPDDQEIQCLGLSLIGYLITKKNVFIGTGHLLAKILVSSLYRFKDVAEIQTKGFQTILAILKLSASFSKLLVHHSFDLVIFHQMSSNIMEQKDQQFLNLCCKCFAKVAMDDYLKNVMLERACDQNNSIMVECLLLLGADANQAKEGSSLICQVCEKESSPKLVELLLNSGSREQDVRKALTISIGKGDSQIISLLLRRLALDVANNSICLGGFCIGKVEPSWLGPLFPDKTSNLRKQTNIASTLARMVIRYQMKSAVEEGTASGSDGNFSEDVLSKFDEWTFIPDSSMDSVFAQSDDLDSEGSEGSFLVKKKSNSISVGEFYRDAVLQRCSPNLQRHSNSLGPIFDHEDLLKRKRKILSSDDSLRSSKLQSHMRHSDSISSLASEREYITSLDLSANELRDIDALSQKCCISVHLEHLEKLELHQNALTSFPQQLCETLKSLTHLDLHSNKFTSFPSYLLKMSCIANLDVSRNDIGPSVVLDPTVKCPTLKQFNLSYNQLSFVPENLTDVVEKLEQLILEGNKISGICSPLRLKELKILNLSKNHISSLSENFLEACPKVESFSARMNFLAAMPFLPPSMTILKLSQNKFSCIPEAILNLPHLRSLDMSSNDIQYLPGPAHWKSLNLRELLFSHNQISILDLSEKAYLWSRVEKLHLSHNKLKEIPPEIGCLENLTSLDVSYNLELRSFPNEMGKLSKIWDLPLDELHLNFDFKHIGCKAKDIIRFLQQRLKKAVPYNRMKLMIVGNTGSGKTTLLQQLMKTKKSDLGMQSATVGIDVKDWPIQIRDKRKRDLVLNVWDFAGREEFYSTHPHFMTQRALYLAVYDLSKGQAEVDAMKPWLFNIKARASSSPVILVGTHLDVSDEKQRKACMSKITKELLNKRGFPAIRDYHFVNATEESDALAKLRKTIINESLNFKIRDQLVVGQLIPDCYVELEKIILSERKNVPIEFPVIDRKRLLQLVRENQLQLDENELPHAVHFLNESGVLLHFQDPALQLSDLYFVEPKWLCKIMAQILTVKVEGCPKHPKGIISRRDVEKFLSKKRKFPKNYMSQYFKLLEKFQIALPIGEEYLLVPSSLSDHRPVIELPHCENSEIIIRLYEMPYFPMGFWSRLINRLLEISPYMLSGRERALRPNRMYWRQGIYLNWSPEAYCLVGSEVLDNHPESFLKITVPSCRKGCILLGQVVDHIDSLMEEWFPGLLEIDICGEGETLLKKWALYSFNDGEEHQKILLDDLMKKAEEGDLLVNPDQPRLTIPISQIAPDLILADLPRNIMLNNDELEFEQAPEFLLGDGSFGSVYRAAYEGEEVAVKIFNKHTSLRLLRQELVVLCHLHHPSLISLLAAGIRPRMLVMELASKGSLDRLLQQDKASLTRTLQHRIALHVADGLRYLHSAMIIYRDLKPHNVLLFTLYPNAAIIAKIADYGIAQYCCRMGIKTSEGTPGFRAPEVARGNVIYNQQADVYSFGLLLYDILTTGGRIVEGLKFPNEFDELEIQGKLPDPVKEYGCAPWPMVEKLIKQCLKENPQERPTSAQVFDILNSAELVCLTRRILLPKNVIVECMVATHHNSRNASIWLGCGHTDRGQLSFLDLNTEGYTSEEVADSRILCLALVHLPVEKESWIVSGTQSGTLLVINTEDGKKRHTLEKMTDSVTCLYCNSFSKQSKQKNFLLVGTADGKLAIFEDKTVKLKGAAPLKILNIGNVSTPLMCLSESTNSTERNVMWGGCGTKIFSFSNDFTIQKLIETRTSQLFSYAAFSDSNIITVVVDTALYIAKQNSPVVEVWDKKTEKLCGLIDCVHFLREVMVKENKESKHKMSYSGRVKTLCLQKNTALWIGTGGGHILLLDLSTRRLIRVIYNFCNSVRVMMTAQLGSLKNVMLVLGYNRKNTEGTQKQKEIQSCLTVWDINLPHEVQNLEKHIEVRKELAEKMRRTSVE
T2 sequence (Q16584 whole entry): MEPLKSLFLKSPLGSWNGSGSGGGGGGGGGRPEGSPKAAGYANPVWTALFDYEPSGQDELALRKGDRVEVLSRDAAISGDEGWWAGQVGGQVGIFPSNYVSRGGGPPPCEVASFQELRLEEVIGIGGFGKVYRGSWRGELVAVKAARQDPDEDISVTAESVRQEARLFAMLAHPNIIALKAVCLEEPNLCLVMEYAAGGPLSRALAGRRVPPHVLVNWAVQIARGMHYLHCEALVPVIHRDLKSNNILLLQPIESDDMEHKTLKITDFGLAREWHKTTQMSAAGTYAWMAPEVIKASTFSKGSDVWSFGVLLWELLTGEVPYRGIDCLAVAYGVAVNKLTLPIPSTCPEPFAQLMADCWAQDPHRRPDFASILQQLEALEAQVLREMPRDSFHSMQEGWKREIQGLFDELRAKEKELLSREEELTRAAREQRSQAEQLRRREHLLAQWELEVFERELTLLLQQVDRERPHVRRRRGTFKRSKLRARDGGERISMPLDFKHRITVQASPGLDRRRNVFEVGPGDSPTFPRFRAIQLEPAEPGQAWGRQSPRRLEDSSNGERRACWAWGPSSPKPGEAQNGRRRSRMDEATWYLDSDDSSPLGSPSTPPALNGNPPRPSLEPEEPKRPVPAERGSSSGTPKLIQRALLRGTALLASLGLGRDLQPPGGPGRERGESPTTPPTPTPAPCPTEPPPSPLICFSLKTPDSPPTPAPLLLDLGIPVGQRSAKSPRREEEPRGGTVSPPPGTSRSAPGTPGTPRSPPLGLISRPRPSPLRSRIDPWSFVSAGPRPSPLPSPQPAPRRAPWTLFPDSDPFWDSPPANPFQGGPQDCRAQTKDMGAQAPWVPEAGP

| SMILES | IC50 [1] [nM] | IC50 [3] [nM] | Cell viability (% of Con. 10 μM) HS746T [2] | Cell viability (% of Con. 10 μM) HepG2 [4] |
| --- | --- | --- | --- | --- |
| CP(C)(=O)c1ccccc1Nc1nc(Nc2ccc3[nH]nc(-c4ccc(Cl)c(C(F)(F)F)c4)c3c2)ncc1Cl [compound 111, (2-((5-Chloro-2-((3-(4-chloro-3-(trifluoromethyl)phenyl)-1H-indazol-5-yl)amino)pyrimidin-4-yl)amino)phenyl)dimethylphosphine oxide] | 10 to 100 | 1 to 10 | 7 % of Con. | 7 % of Con. |
| CP(C)(=O)c1ccccc1Nc1nc(NC2CCCCC2)ncc1Cl [compound 16, (2-((5-Chloro-2-(cyclohexylamino)pyrimidin-4-yl)amino)phenyl) dimethylphosphine oxide] | > 1000 | > 1000 | 64 % of Con. | 82 % of Con. |
| CC1c2cc(Nc3ncc(Cl)c(Nc4ccccc4P(C)(C)=O)n3)ccc2CCN1C(=O)C(F)(F)F (centres unmarked) [compound 54, 1-(7-((5-Chloro-4-((2-(dimethylphosphoryl)phenyl)amino)pyrimidin-2-yl)amino)-1-methyl-3,4-dihydroisoquinolin-2(1H)-yl)-2,2,2-trifluoroethan-1-one] | 1 to 10 | 1 to 10 | 4 % of Con. | 17 % of Con. |
| CC1(C)c2cc(Nc3ncc(Cl)c(Nc4ccccc4P(C)(C)=O)n3)ccc2CCN1C(=O)C(F)(F)F [compound 42, 1-(7-((5-Chloro-4-((2-(dimethylphosphoryl)phenyl)amino)pyrimidin-2-yl)amino)-1,1-dimethyl-3,4-dihydroisoquinolin-2(1H)-yl)-2,2,2-trifluoroethan-1-one] | 1 to 10 | 1 to 10 | 30 % of Con. | 48 % of Con. |
| CP(C)(=O)c1ccccc1Nc1nc(Nc2ccc3[nH]nc(-c4ccc(CO)o4)c3c2)ncc1Cl [compound 101, (2-((5-chloro-2-((3-(5-(hydroxymethyl)furan-2-yl)-1H-indazol-5-yl)amino)pyrimidin-4-yl)amino)phenyl)dimethylphosphine oxide] | 10 to 100 | 1 to 10 | 13 % of Con. | 56 % of Con. |
| CP(C)(=O)c1ccccc1Nc1nc(Nc2ccc3[nH]nc(-c4cn[nH]c4)c3c2)ncc1Cl [compound 84, (2-((2-((3-(1H-Pyrazol-4-yl)-1H-indazol-5-yl)amino)-5-chloropyrimidin-4-yl)amino)phenyl)dimethylphosphine oxide] | 1 to 10 | 1 to 10 | 11 % of Con. |  |
| CP(C)(=O)c1ccccc1Nc1nc(Nc2cnc3[nH]ncc3c2)ncc1Cl [compound 82, (2-((2-((1H-Pyrazolo[3,4-b]pyridin-5-yl)amino)-5-chloropyrimidin-4-yl)amino)phenyl)dimethylphosphine oxide] | 10 to 100 | 10 to 100 | 18 % of Con. |  |
| CP(C)(=O)c1ccccc1Nc1nc(Nc2ccc3[nH]nc(-c4ccc(C=O)o4)c3c2)ncc1Cl [compound 92, 5-(5-((5-Chloro-4-((2-(dimethylphosphoryl)phenyl)amino)pyrimidin-2-yl)amino)-1H-indazol-3-yl)furan-2-carbaldehyde] | 1 to 10 | 1 to 10 | 14.1 % of Con. |  |
| CC(C)(C)OC(=O)N1CC=C(c2n[nH]c3ccc(Nc4ncc(Cl)c(Nc5ccccc5P(C)(C)=O)n4)cc23)CC1 [compound 85, Tert-butyl 4-(5-((5-chloro-4-((2-(dimethylphosphoryl)phenyl)amino)pyrimidin-2-yl)amino)-1H-indazol-3-yl)-3,6-dihydropyridine-1(2H)-carboxylate] | 1 to 10 | 1 to 10 | 6 % of Con. |  |
| Cc1cc(C)cc(Nc2ncc(Cl)c(Nc3ccccc3S(=O)(=O)C(C)C)n2)c1 [compound 3, 5-Chloro-N^2-(3,5-dimethylphenyl)-N^4-(2-(isopropylsulfonyl)phenyl) pyrimidine-2,4-diamine] | 100 to 1000 | 100 to 1000 |  |  |
| CC(C)S(=O)(=O)c1ccccc1Nc1nc(Nc2cc(F)cc(F)c2)ncc1Cl [compound 6, 5-Chloro-N^2-(3,5-difluorophenyl)-N^4-(2-(isopropylsulfonyl)phenyl) pyrimidine-2,4-diamine] | 100 to 1000 | 100 to 1000 |  |  |
| CP(C)(=O)c1ccccc1Nc1nc(Nc2ccc3[nH]nc(-c4cccnc4F)c3c2)ncc1Cl [compound 83, (2-((5-Chloro-2-((3-(2-fluoropyridin-3-yl)-1H-indazol-5-yl)amino)pyrimidin-4-yl)amino)phenyl)dimethylphosphine oxide] | 1 to 10 | 1 to 10 | 11 % of Con. |  |
| CP(C)(=O)c1ccccc1Nc1nc(Nc2ccc3[nH]nc(C4=CCNCC4)c3c2)ncc1Cl [compound 91] | 1 to 10 | 1 to 10 | 5.8 % of Con. |  |

The next lines start with results.

| IC50 [1] [nM] | IC50 [3] [nM] | SMILES | Cell viability (% of Con. 10 μM) HS746T [2] | Cell viability (% of Con. 10 μM) HepG2 [4] |
| --- | --- | --- | --- | --- |
| > 1000 | 100 to 1000 | Cc1cccc2sc(Nc3ncc(Cl)c(Nc4ccccc4P(C)(C)=O)n3)nc12 [compound 27, (2-((5-Chloro-2-((4-methylbenzo[d]thiazol-2-yl)amino)pyrimidin-4-yl)amino)phenyl)dimethylphosphine oxide] | 74 % of Con. | 81 % of Con. |
| 10 to 100 | 100 to 1000 | CC(C)S(=O)(=O)c1ccccc1Nc1nc(Nc2cc(F)c(Br)c(F)c2)ncc1Cl [compound 4, N^2-(4-Bromo-3,5-difluorophenyl)-5-chloro-N^4-(2-(isopropylsulfonyl)phenyl)pyrimidine-2,4-diamine] |  |  |
| 100 to 1000 | 10 to 100 | CC(C)S(=O)(=O)c1ccccc1Nc1nc(Nc2cc(C(F)(F)F)cc(C(F)(F)F)c2)ncc1Cl [compound 5, N^2-(3,5-bis(trifluoromethyl)phenyl)-5-chloro-N^4-(2-(isopropylsulfonyl)phenyl)pyrimidine-2,4-diamine] |  |  |
| 1 to 10 | 1 to 10 | CP(C)(=O)c1ccccc1Nc1nc(Nc2ccc3[nH]ncc3c2)ncc1Cl [compound 66, (2-((2-((1H-Indazol-5-yl)amino)-5-chloropyrimidin-4-yl)amino)phenyl)dimethylphosphine oxide] | 22 % of Con. | 31 % of Con. |
| 100 to 1000 | 100 to 1000 | CC(C)S(=O)(=O)c1ccccc1Nc1nc(Nc2cc(Cl)cc(Cl)c2)ncc1Cl [compound 2, 5-Chloro-N^2-(3,5-dichlorophenyl)-N^4-(2-(isopropylsulfonyl)phenyl) pyrimidine-2,4-diamine] |  |  |
| 1 to 10 | 10 to 100 | Cn1ncc2cc(Nc3ncc(Cl)c(Nc4ccccc4P(C)(C)=O)n3)cnc21 [compound 78] | 17 % of Con. |  |
| 1 to 10 | 10 to 100 | CP(C)(=O)c1ccccc1Nc1nc(Nc2cnc3[nH]ccc3c2)ncc1Cl [compound 79, (2-((2-((1H-Pyrrolo[2,3-b]pyridin-5-yl)amino)-5-chloropyrimidin-4-yl)amino)phenyl)dimethylphosphine oxide] | 19 % of Con. |  |
